Source: patent US8163909B2, “Substituted hydroxyethyl amine compounds as beta-secretase modulators and methods of use” (Amgen Inc., priority 2007, dated 2012)

How the values were obtained:
[1] = molecular target: Beta Secretase enzyme (BACE) (Homo sapiens, UniProt P56817); assay: In vitro enzymatic BACE FRET (fluorescence resonance energy transfer) assay; format: biochemical; conditions: BACE enzyme assay; read-out: BACE1 FRET assay;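 note: fluorescence read after 1 h with 50 nM quenched peptide substrate spanning the BACE cleavage site, in pH 4.2 acetate buffer containing 10% DMSO and nonionic detergent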
Chain of Beta Secretase enzyme (BACE) (P56817 46-501): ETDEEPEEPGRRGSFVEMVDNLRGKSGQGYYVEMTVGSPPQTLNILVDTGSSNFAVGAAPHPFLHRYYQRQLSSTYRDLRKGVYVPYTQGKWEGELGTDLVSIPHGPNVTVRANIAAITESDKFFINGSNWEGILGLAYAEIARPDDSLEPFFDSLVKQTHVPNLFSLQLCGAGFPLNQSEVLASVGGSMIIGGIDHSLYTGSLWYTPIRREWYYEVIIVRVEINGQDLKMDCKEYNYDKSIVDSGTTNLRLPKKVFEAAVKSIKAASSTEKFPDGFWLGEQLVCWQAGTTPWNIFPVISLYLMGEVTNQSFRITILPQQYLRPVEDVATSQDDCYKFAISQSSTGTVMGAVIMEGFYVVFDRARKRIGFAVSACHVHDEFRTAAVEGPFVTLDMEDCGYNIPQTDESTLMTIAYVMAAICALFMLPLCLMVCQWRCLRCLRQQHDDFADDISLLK

[2] = test system: Aβ40 in conditioned medium of cells stably expressing Amyloid Precursor Protein (APP); assay: In vitro BACE cell-based assay (Aβ40 in conditioned medium, sandwich ELISA); conditions: Homo sapiens, HEK293, HEK cells; read-out: HEK cell assay;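 note: compounds added as a dilution series, secreted peptide quantified by europium time-resolved fluorescence readout, potency fitted from percent of control versus compound concentration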
CYP3A4 (CYP3A) = CYP3A4 (CYP3A) (Homo sapiens, UniProt P08684); assay: in vitro; conditions: microsomes, pH 7.4;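 note: inhibition of CYP3A-mediated 1-hydroxymidazolam formation after 10 min incubation with NADPH, quantified by HPLC MS relative to metabolite produced without test compound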
Chain of CYP3A4 (CYP3A) (P08684 2-503): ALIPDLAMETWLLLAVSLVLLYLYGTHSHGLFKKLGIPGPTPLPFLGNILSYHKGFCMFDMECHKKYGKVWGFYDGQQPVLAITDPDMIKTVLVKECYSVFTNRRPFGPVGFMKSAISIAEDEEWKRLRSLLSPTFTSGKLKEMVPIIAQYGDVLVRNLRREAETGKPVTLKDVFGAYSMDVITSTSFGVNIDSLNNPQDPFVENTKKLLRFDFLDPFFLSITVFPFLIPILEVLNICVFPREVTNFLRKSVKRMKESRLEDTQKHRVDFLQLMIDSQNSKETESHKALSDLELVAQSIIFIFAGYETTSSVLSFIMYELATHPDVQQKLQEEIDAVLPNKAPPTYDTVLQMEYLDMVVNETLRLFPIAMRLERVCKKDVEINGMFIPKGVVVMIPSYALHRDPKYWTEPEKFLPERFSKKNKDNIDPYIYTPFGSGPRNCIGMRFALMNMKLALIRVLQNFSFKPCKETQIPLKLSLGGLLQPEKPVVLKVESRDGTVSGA

[3] = Microsomal stability assay, rat liver microsomes; conditions: rat liver microsomal data;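 note: rat liver microsomes (0.25 mg/mL) with about 1 µM compound plus 1 mM NADPH, pH 7.4, 37 °C for 30 min, parent left measured by LC-MS/MS against 0 min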
[4] = Microsomal stability assay, human liver microsomes; conditions: human liver microsomal data;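 note: pooled human liver microsomes at 0.25 mg/mL with 1 µM compound and NADPH at 37 °C, pH 7.4, for 30 min, unchanged parent quantified by LC-MS/MS against the 0 min sample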
CYP2D6 = CYP2D6 (Homo sapiens, UniProt P10635); assay: CYP2D6 inhibition assay (bufuralol, pooled human liver microsomes); conditions: 2D6 IC50 (uM), CYP enzyme inhibition
Chain of CYP2D6 (P10635 whole entry): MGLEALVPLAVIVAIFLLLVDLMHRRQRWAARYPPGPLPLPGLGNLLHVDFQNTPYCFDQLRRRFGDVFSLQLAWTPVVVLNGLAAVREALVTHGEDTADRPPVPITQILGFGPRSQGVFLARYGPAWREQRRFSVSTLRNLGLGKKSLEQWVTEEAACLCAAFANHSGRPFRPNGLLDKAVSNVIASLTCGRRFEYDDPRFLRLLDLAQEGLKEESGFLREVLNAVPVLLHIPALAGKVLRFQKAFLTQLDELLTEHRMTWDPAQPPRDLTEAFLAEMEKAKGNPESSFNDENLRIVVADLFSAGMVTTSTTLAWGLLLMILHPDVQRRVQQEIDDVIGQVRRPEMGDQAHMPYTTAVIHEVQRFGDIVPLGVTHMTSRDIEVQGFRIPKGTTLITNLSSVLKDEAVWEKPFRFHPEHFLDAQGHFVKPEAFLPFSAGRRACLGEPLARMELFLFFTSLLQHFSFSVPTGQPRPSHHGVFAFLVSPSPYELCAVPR

Row | Structure (SMILES) | IC50 [1] [nM] | IC50 [2] [nM] | IC50 (CYP3A4 (CYP3A)) [nM] | RLM [3] [µL/min/mg] | HLM [4] [µL/min/mg] | IC50 (CYP2D6) [µM]
1 | COCC(=O)N[C@@H](Cc1cccc(F)c1)[C@H](O)CN[C@H]1CC2(CCC2)Oc2c(Br)cc(CC(C)C)cc21 [compound 514] | 3 | 128 | 1500 | 560 | 682 | 6
2 | CO[C@H](C)C(=O)N[C@@H](Cc1cccc(F)c1)[C@H](O)CN[C@H]1CC2(CCC2)Oc2c(Br)cc(CC(C)C)cc21 [compound 515] | 3 | 125 | 1300 | 399 | 775 | 9.4
3 | CC(=O)N[C@@H](Cc1ccc2c(c1)OCO2)[C@H](O)CN[C@H]1CC2(CCC2)Oc2ncc(CC(F)(F)F)cc21 [compound 517] | 178 | 202 | 500 | 51 | 32 | 7.8
4 | COCC(=O)N[C@@H](Cc1ccc2c(c1)OCO2)[C@H](O)CN[C@H]1CC2(CCC2)Oc2ncc(CC(F)(F)F)cc21 [compound 518] | 131 | 340 | 300 | 82 | 26 | 2.7
5 | CO[C@H](C)C(=O)N[C@@H](Cc1ccc2c(c1)OCO2)[C@H](O)CN[C@H]1CC2(CCC2)Oc2ncc(CC(F)(F)F)cc21 [compound 519] | 255 | 810 | 300 | 71 | 33 | 7.4
6 | COCC(=O)N[C@@H](Cc1cccc(F)c1)[C@H](O)CN[C@H]1CC2(CCC2)Oc2c1cc(CC(C)C)cc2-n1ccnc1 [compound 520] | 18 | 9 | 100 | 144 | 32 | 0.9
7 | CO[C@H](C)C(=O)N[C@@H](Cc1cccc(F)c1)[C@H](O)CN[C@H]1CC2(CCC2)Oc2c1cc(CC(C)(C)C)cc2-n1ccnc1 [compound 522] | 44 | 13 | 100 | 141 | 43 | 3.1
8 | CO[C@H](C)C(=O)N[C@@H](Cc1cccc(F)c1)[C@H](O)CN[C@H]1CC2(CCC2)Oc2c(-c3cscn3)cc(CC(C)C)cc21 [compound 524] | 8 | 65 | 500 | 472 | 492 | 7.5
9 | CC(C)(C)Cc1cnc2c(c1)[C@@H](NC[C@@H](O)[C@H](Cc1ccc3c(c1)OCO3)NC(=O)[C@@H]1CCO1)CC1(CCC1)O2 [compound 525] | 21 | 19 | 200 | 101 | 32 | 3.1
10 | COCC(=O)N[C@@H](Cc1cccc(F)c1)[C@H](O)CN[C@H]1CC2(CCC2)Oc2c(-c3cscn3)cc(CC(C)C)cc21 [compound 526] | 6 | 53 | 600 | 503 | 351 | 7.3
11 | CO[C@H](C)C(=O)N[C@@H](Cc1ccc(F)cc1)[C@H](O)CN[C@H]1CC2(CCC2)Oc2c1cc(CC(C)(C)C)nc2-c1ccncc1 [compound 527] | 222 | 1950 | 100 | 108 | 33 | 0.6
12 | COCC(=O)N[C@@H](Cc1cccc(F)c1)[C@H](O)CN[C@H]1CC2(CCC2)Oc2c1cc(CC(C)(C)C)nc2-c1ccncc1 [compound 531] | 13 | 29 | 200 | 159 | 40 | 1.3
13 | CC(=O)N[C@@H](Cc1cccc(F)c1)[C@H](O)CN[C@H]1CC2(CCC2)Oc2c1cc(CC(C)(C)C)nc2-c1ccncc1 [compound 532] | 12 | 22 | 200 | 91 | 40 | 2.6
14 | CO[C@H](C)C(=O)N[C@@H](Cc1ccncc1)[C@H](O)CN[C@H]1CC2(CCC2)Oc2ncc(CC(C)(C)C)cc21 [compound 534] | 23 | 14 | 500 | 113 | 178 | 3.6
15 | CO[C@H](C)C(=O)N[C@@H](Cc1ccc2c(c1)OCO2)[C@H](O)CN[C@@H]1c2cc(CC(C)(C)C)cnc2OC2(CCC2)[C@H]1F [compound 539] | 4770 | 147 | 100 | 161 | 61 | 6.5
16 | CC(C)(C)Cc1cnc2c(c1)[C@@H](NC[C@@H](O)[C@H](Cc1ccc(F)cc1)NC=O)CC1(CCC1)O2 [compound 540] | 14 | 74 | 1200 | 347 | 264 | 2.3
17 | CO[C@H](C)C(=O)N[C@@H](Cc1ccccc1)[C@H](O)CN[C@H]1CC2(CCC2)Oc2c1cc(CC(C)(C)C)nc2-c1ccncc1 [compound 543] | 37 | 255 | 100 | 242 | 41 | 2.6
18 | COCC(=O)N[C@@H](Cc1ccccc1)[C@H](O)CN[C@H]1CC2(CCC2)Oc2c(Br)cc(CC(C)C)cc21 [compound 544] | 5 | 937 | 1800 | 662 | 399 | 7
19 | CO[C@H](C)C(=O)N[C@@H](Cc1ccccc1)[C@H](O)CN[C@H]1CC2(CCC2)Oc2c(Br)cc(CC(C)C)cc21 [compound 545] | 7 | 1480 | 1100 | 775 | 775 | 8.2
20 | COCC(=O)N[C@@H](Cc1ccccc1)[C@H](O)CN[C@H]1CC2(CCC2)Oc2c1cc(CC(C)C)cc2-n1ccnc1 [compound 546] | 25 | 33 | 100 | 267 | 75 | 3.8
21 | CO[C@H](C)C(=O)N[C@@H](Cc1ccccc1)[C@H](O)CN[C@H]1CC2(CCC2)Oc2c1cc(CC(C)C)cc2-n1ccnc1 [compound 547] | 42 | 73 | 100 | 260 | 53 | 4.4
22 | CC(C)Cc1cnc2c(c1)[C@@H](NC[C@@H](O)[C@H](Cc1ccc3c(c1)OCO3)NC(=O)[C@@H]1CCCO1)CC1(CCC1)O2 [compound 548] | 74 | 623 | 300 | 184 | 57 | 3.7
23 | COCC(=O)N[C@@H](Cc1ccc(F)cc1)[C@H](O)CN[C@H]1CC2(CCC2)Oc2c1cc(CC(C)(C)C)nc2-c1ccncc1 [compound 549] | 71 | 296 | 100 | 122 | 38 | 2
24 | COCC(=O)N[C@@H](Cc1cccc(F)c1)[C@H](O)CN[C@H]1CC2(CCC2)Oc2c(-c3ccncc3)cc(Cl)cc21 [compound 550] | 42 | 474 | 200 | 315 | 338 | 0.5
25 | CC(C)Cc1cnc2c(c1)[C@@H](NC[C@@H](O)[C@H](Cc1ccc3c(c1)OCO3)NC(=O)[C@H]1CCCO1)CC1(CCC1)O2 [compound 551] | 44 | 367 | 100 | 112 | 33 | 5.7
26 | CC(C)Cc1cnc2c(c1)[C@@H](NC[C@@H](O)[C@H](Cc1ccc3c(c1)OCO3)NC(=O)[C@H](C)F)CC1(CCC1)O2 [compound 552] | 49 | 369 | 200 | 253 | 73 | 2.3
27 | CO[C@H](C)C(=O)N[C@@H](Cc1ccc2c(c1)OCO2)[C@H](O)CN[C@@H]1c2cc(CC(C)(C)C)cnc2OC2(CCC2)[C@@H]1F [compound 554] | 57 | 1020 | 200 | 173 | 63 | 6.5
28 | CO[C@H](C)C(=O)N[C@@H](Cc1ccc2c(c1)OCO2)[C@H](O)CN[C@H]1CC2(CCC2)Oc2ccc(C[C@H](C)F)cc21 [compound 555] | 3420 | > 10000 | 400 | 543 | 269 | 0.9
29 | CO[C@H](C)C(=O)N[C@@H](Cc1ccc2c(c1)OCO2)[C@H](O)CN[C@H]1CC2(CCC2)Oc2ccc(C[C@@H](C)F)cc21 [compound 556] | 718 | 446 | 300 | 353 | 211 | 1
30 | COCC(=O)N[C@@H](Cc1ccc2c(c1)OCO2)[C@H](O)CN[C@H]1CC2(CCC2)Oc2ccc(C[C@H](C)F)cc21 [compound 557] | 3790 | > 10000 | 300 | 344 | 193 | 0.5
